# Laboratory results: PubChem BioAssay (NCI)
#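 96-well plates; 48 h exposure; 5 concentrations. Endpoints by linear interpolation between flanking doses. Not reached: highest tested concentration assigned. TGI: total growth inhibition.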
# How the values were obtained:
# Assay in all cases: inhibition of tumour cell growth, NCI panel, 48 h
# A549 NSCLC = system: A549 NSCLC
# UACC-62 melanoma = system: UACC-62 melanoma
# DMS 273 small cell lung = system: DMS 273 small cell lung
# OVCAR-3 ovarian = system: OVCAR-3 ovarian
# UO-31 renal = system: UO-31 renal
# XF 498 CNS = system: XF 498 CNS
# M14 melanoma = system: M14 melanoma
# SF-539 CNS = system: SF-539 CNS
# HCT-116 colon = system: HCT-116 colon
# UACC-257 melanoma = system: UACC-257 melanoma
# SF-268 CNS = system: SF-268 CNS
# NCI-H460 lung = system: NCI-H460 lung
# LXFL 529 NSCLC = system: LXFL 529 NSCLC
# SW-620 colon = system: SW-620 colon
# EKVX NSCLC = system: EKVX NSCLC
# OVCAR-8 ovarian = system: OVCAR-8 ovarian
# HOP-62 NSCLC = system: HOP-62 NSCLC
# 786-0 renal = system: 786-0 renal
# MOLT-4 leukemia = system: MOLT-4 leukemia
# NCI-H226 lung = system: NCI-H226 lung
# HCT-15 colon = system: HCT-15 colon
# HT29 colon = system: HT29 colon
# SNB-19 CNS = system: SNB-19 CNS
# DMS 114 small cell lung = system: DMS 114 small cell lung
# SN12C renal = system: SN12C renal
# SR leukemia = system: SR leukemia
# M19-MEL melanoma = system: M19-MEL melanoma
# MALME-3M melanoma = system: MALME-3M melanoma
# KM20L2 colon = system: KM20L2 colon
# SK-MEL-28 melanoma = system: SK-MEL-28 melanoma
# SK-OV-3 ovarian = system: SK-OV-3 ovarian
# RPMI-8226 leukemia = system: RPMI-8226 leukemia
# COLO 205 colon = system: COLO 205 colon
# HCC-2998 colon = system: HCC-2998 colon
# TK-10 renal = system: TK-10 renal
# K-562 leukemia = system: K-562 leukemia
# IGROV1 ovarian = system: IGROV1 ovarian
# SF-295 CNS = system: SF-295 CNS
# SK-MEL-5 melanoma = system: SK-MEL-5 melanoma
# HL-60(TB) leukemia = system: HL-60(TB) leukemia
# NCI-H23 lung = system: NCI-H23 lung
# ACHN renal = system: ACHN renal
# NCI-H522 lung = system: NCI-H522 lung
# CCRF-CEM leukemia = system: CCRF-CEM leukemia
# LOX IMVI melanoma = system: LOX IMVI melanoma
# KM12 colon = system: KM12 colon
# U251 CNS = system: U251 CNS
# MDA-MB-231 breast = system: MDA-MB-231 breast
# A498 renal = system: A498 renal
# SNB-75 CNS = system: SNB-75 CNS
# BT-549 breast = system: BT-549 breast
# DU-145 prostate = system: DU-145 prostate
# CAKI-1 renal = system: CAKI-1 renal
# OVCAR-5 ovarian = system: OVCAR-5 ovarian
# MDA-N = system: MDA-N
# OVCAR-4 ovarian = system: OVCAR-4 ovarian
# SK-MEL-2 melanoma = system: SK-MEL-2 melanoma
# HOP-92 NSCLC = system: HOP-92 NSCLC
# RXF 393 renal = system: RXF 393 renal
# T-47D breast = system: T-47D breast
# NCI/ADR-RES ovarian = system: NCI/ADR-RES ovarian
# MDA-MB-435 = system: MDA-MB-435
# PC-3 prostate = system: PC-3 prostate
# HS 578T breast = system: HS 578T breast
# MCF7 breast = system: MCF7 breast
smiles,measurement,setting,value
CCCCc1c2c(nc3c1CCC/C3=C\c1ccccc1)/C(=C/c1ccccc1)CCC2,TGI,A549 NSCLC,> 100 µM
same,TGI,UACC-62 melanoma,> 100 µM
same,TGI,DMS 273 small cell lung,> 100 µM
same,TGI,OVCAR-3 ovarian,> 100 µM
same,TGI,UO-31 renal,> 100 µM
same,TGI,XF 498 CNS,> 100 µM
same,TGI,M14 melanoma,> 100 µM
same,TGI,SF-539 CNS,> 100 µM
same,TGI,HCT-116 colon,> 100 µM
same,TGI,UACC-257 melanoma,> 100 µM
same,TGI,SF-268 CNS,> 100 µM
same,TGI,NCI-H460 lung,> 100 µM
same,TGI,LXFL 529 NSCLC,> 100 µM
same,TGI,SW-620 colon,> 100 µM
same,TGI,EKVX NSCLC,> 100 µM
same,TGI,OVCAR-8 ovarian,> 100 µM
same,TGI,HOP-62 NSCLC,> 100 µM
same,TGI,786-0 renal,> 100 µM
same,TGI,MOLT-4 leukemia,> 100 µM
same,TGI,NCI-H226 lung,> 100 µM
same,TGI,HCT-15 colon,> 100 µM
same,TGI,HT29 colon,> 100 µM
same,TGI,SNB-19 CNS,> 100 µM
same,TGI,DMS 114 small cell lung,> 100 µM
same,TGI,SN12C renal,> 100 µM
same,TGI,SR leukemia,> 100 µM
same,TGI,M19-MEL melanoma,> 100 µM
same,TGI,MALME-3M melanoma,> 100 µM
same,TGI,KM20L2 colon,> 100 µM
same,TGI,SK-MEL-28 melanoma,> 100 µM
same,TGI,SK-OV-3 ovarian,> 100 µM
same,TGI,RPMI-8226 leukemia,> 100 µM
same,TGI,COLO 205 colon,> 100 µM
same,TGI,HCC-2998 colon,> 100 µM
same,TGI,TK-10 renal,> 100 µM
same,TGI,K-562 leukemia,> 100 µM
same,TGI,IGROV1 ovarian,> 100 µM
same,TGI,SF-295 CNS,> 100 µM
same,TGI,SK-MEL-5 melanoma,> 100 µM
same,TGI,HL-60(TB) leukemia,> 100 µM
same,TGI,NCI-H23 lung,> 100 µM
same,TGI,ACHN renal,> 100 µM
same,TGI,NCI-H522 lung,> 100 µM
same,TGI,CCRF-CEM leukemia,> 100 µM
same,TGI,LOX IMVI melanoma,> 100 µM
same,TGI,KM12 colon,> 100 µM
same,TGI,U251 CNS,> 100 µM
COc1ccc(/C=N/N2C(=O)c3c(N)c(C#N)c(-c4ccccc4)c(-c4ccccc4)c3C2=O)cc1,TGI,MDA-MB-231 breast,> 100 µM
same,TGI,A498 renal,> 100 µM
same,TGI,SNB-75 CNS,> 100 µM
same,TGI,BT-549 breast,> 100 µM
same,TGI,A549 NSCLC,> 100 µM
same,TGI,UACC-62 melanoma,> 100 µM
same,TGI,OVCAR-3 ovarian,> 100 µM
same,TGI,UO-31 renal,> 100 µM
same,TGI,M14 melanoma,> 100 µM
same,TGI,SF-539 CNS,> 100 µM
same,TGI,HCT-116 colon,> 100 µM
same,TGI,UACC-257 melanoma,> 100 µM
same,TGI,SF-268 CNS,> 100 µM
same,TGI,NCI-H460 lung,> 100 µM
same,TGI,SW-620 colon,> 100 µM
same,TGI,DU-145 prostate,> 100 µM
same,TGI,EKVX NSCLC,> 100 µM
same,TGI,OVCAR-8 ovarian,> 100 µM
same,TGI,CAKI-1 renal,> 100 µM
same,TGI,786-0 renal,> 100 µM
same,TGI,MOLT-4 leukemia,> 100 µM
same,TGI,OVCAR-5 ovarian,> 100 µM
same,TGI,NCI-H226 lung,> 100 µM
same,TGI,HCT-15 colon,> 100 µM
same,TGI,MDA-N,> 100 µM
same,TGI,SNB-19 CNS,> 100 µM
same,TGI,SN12C renal,> 100 µM
same,TGI,OVCAR-4 ovarian,> 100 µM
same,TGI,SR leukemia,> 100 µM
same,TGI,MALME-3M melanoma,> 100 µM
same,TGI,SK-MEL-2 melanoma,> 100 µM
same,TGI,HOP-92 NSCLC,> 100 µM
same,TGI,SK-MEL-28 melanoma,> 100 µM
same,TGI,RPMI-8226 leukemia,> 100 µM
same,TGI,RXF 393 renal,> 100 µM
same,TGI,COLO 205 colon,> 100 µM
same,TGI,HCC-2998 colon,> 100 µM
same,TGI,T-47D breast,> 100 µM
same,TGI,TK-10 renal,> 100 µM
same,TGI,K-562 leukemia,> 100 µM
same,TGI,IGROV1 ovarian,> 100 µM
same,TGI,SF-295 CNS,> 100 µM
same,TGI,NCI/ADR-RES ovarian,> 100 µM
same,TGI,SK-MEL-5 melanoma,> 100 µM
same,TGI,MDA-MB-435,> 100 µM
same,TGI,HL-60(TB) leukemia,> 100 µM
same,TGI,ACHN renal,> 100 µM
same,TGI,PC-3 prostate,> 100 µM
same,TGI,NCI-H522 lung,> 100 µM
same,TGI,HS 578T breast,> 100 µM
same,TGI,CCRF-CEM leukemia,> 100 µM
same,TGI,LOX IMVI melanoma,> 100 µM
same,TGI,KM12 colon,> 100 µM
same,TGI,U251 CNS,> 100 µM
same,TGI,MCF7 breast,> 100 µM
Cn1ccnc1Sc1ccc(C=Nc2ccc3nc(SCC(=O)NC4CCCCC4)sc3c2)cc1[N+](=O)[O-],TGI,MDA-MB-231 breast,99.4 µM
same,TGI,A498 renal,48.2 µM
same,TGI,SNB-75 CNS,8.84 µM
same,TGI,BT-549 breast,46.8 µM
same,TGI,A549 NSCLC,> 100 µM
same,TGI,UACC-62 melanoma,> 100 µM
same,TGI,OVCAR-3 ovarian,> 100 µM
same,TGI,UO-31 renal,> 100 µM
same,TGI,M14 melanoma,> 100 µM
same,TGI,SF-539 CNS,22.3 µM
same,TGI,HCT-116 colon,> 100 µM
same,TGI,UACC-257 melanoma,> 100 µM
same,TGI,SF-268 CNS,> 100 µM
same,TGI,NCI-H460 lung,> 100 µM
same,TGI,SW-620 colon,> 100 µM
same,TGI,DU-145 prostate,> 100 µM
same,TGI,EKVX NSCLC,> 100 µM
same,TGI,OVCAR-8 ovarian,> 100 µM
same,TGI,HOP-62 NSCLC,> 100 µM
same,TGI,CAKI-1 renal,> 100 µM
same,TGI,786-0 renal,49 µM
same,TGI,MOLT-4 leukemia,> 100 µM
same,TGI,OVCAR-5 ovarian,> 100 µM
same,TGI,NCI-H226 lung,> 100 µM
same,TGI,HCT-15 colon,> 100 µM
same,TGI,MDA-N,> 100 µM
same,TGI,HT29 colon,> 100 µM
same,TGI,SNB-19 CNS,55.9 µM
same,TGI,SN12C renal,> 100 µM
same,TGI,OVCAR-4 ovarian,> 100 µM
same,TGI,SR leukemia,> 100 µM
same,TGI,MALME-3M melanoma,> 100 µM
same,TGI,SK-MEL-2 melanoma,54.1 µM
same,TGI,HOP-92 NSCLC,32.5 µM
same,TGI,SK-MEL-28 melanoma,> 100 µM
same,TGI,SK-OV-3 ovarian,58.4 µM
same,TGI,RPMI-8226 leukemia,> 100 µM
same,TGI,RXF 393 renal,23.4 µM
same,TGI,COLO 205 colon,> 100 µM
same,TGI,HCC-2998 colon,> 100 µM
same,TGI,T-47D breast,> 100 µM
same,TGI,TK-10 renal,32.2 µM
same,TGI,K-562 leukemia,> 100 µM
same,TGI,IGROV1 ovarian,> 100 µM
same,TGI,SF-295 CNS,44.4 µM
same,TGI,NCI/ADR-RES ovarian,> 100 µM
same,TGI,SK-MEL-5 melanoma,> 100 µM
same,TGI,MDA-MB-435,> 100 µM
same,TGI,HL-60(TB) leukemia,> 100 µM
same,TGI,NCI-H23 lung,> 100 µM
same,TGI,ACHN renal,> 100 µM
same,TGI,PC-3 prostate,> 100 µM
same,TGI,NCI-H522 lung,> 100 µM
same,TGI,HS 578T breast,96.3 µM
same,TGI,CCRF-CEM leukemia,> 100 µM
same,TGI,LOX IMVI melanoma,> 100 µM
same,TGI,KM12 colon,> 100 µM
same,TGI,U251 CNS,33.9 µM
same,TGI,MCF7 breast,> 100 µM
